Target: MAGL (Homo sapiens (Human), UniProt Q99685)
Test: 2-AG assay (MAGL inhibitory activity, hydrolysis of 2-arachidonoylglycerol followed by mass spectrometry)
Format: biochemical
Conditions: 50 pM MAGL protein, 15 min pre-incubation, 30 min incubation at RT
Source text: Compounds of formula (II) were profiled for MAGL inhibitory activity by determining the enzymatic activity by following the hydrolysis of the natural substrate 2-arachidonoylglycerol (2-AG) resulting in arachidonic acid, which can be followed by mass spectrometry. This assay is hereinafter abbreviated “2-AG assay”.
Compounds of formula (II) were profiled for MAGL inhibitory activity by determining the enzymatic activity by following the hydrolysis of the natural substrate 2-arachidonoylglycerol (2-AG) resulting in arachidonic acid, which can be followed by mass spectrometry. This assay is hereinafter abbreviated “2-AG assay”. The 2-AG assay was carried out in 384 well polypropylene assay plates. Compound dilutions were made in 100% DMSO in a polypropylene plate in 3-fold dilution steps to give a final concentration range in the assay from 12.5 μM to 0.8 pM. Compound dilutions were added to MAGL protein in assay buffer (50 mM TRIS, 1 mM EDTA, 0.01% (v/v) Tween-20, 2.5% (v/v) DMSO). After shaking, the plate was incubated for 15 min at RT. To start the reaction, 2-arachidonoylglycerol in assay buffer was added. The final concentrations in the assay was 50 pM for MAGL protein and […] 2-arachidonoylglyerol. After shaking and 30 min incubation at RT, the reaction was quenched by the addition of two assay volumes of acetonitrile containing 4 μM of d8-arachidonic acid. The amount of arachidonic acid formed was traced by an online SPE system (Agilent Rapidfire) coupled to a triple quadrupole mass spectrometer. A C18 SPE cartridge (Agilent G9205A) was used in an acetonitrile/water liquid setup. The mass spectrometer was operated in negative electrospray mode following the mass transitions 303.1→259.1 for arachidonic acid and 311.1→267.0 for d8-arachidonic acid. The activity of the compounds was calculated based on the ratio of intensities [arachidonic acid/d8-arachidonic acid].

MAGL, sequence (Q99685 whole entry, species assumed): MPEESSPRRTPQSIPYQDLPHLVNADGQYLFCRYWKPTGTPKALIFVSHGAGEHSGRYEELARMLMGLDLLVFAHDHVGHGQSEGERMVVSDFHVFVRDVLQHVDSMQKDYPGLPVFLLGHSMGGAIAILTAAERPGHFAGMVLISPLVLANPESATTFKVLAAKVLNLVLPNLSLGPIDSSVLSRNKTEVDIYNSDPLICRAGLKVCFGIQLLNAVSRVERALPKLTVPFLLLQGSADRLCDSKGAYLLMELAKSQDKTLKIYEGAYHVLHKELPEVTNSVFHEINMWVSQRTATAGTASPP

Compound	IC50 [nM]
C[C@H]1c2nn(C)c(-c3cc(F)cc(F)c3)c2CCN1C(=O)c1cc(F)cc(-c2c[nH]c(C#N)c2)c1Cl [Example 36, 4-[2-Chloro-3-[(7S)-3-(3,5-difluorophenyl)-2,7-dimethyl-5,7-dihydro-4H-pyrazolo[3,4-c]pyridine-6-carbonyl]-5-fluoro-phenyl]-1H-pyrrole-2-carbonitrile]	17
CC1c2nn(C)c(-c3cc(F)cc(F)c3)c2CCN1C(=O)c1ccnc(OCC2CNC(=O)O2)c1Cl (stereo not shown) [Example 41, 5-[[3-Chloro-4-[3-(3,5-difluorophenyl)-2,7-dimethyl-5,7-dihydro-4H-pyrazolo[3,4-c]pyridine-6-carbonyl]-2-pyridyl]oxymethyl]oxazolidin-2-one]	53
C[C@H]1c2nn(C)c(-c3cc(F)cc(F)c3)c2CCN1C(=O)c1ccnc(OCC2CNC(=O)O2)c1Cl (stereo partly drawn) [Example 42, 5-[[3-Chloro-4-[(7S)-3-(3,5-difluorophenyl)-2,7-dimethyl-5,7-dihydro-4H-pyrazolo[3,4-c]pyridine-6-carbonyl]-2-pyridyl]oxymethyl]oxazolidin-2-one]	26
C[C@@H]1c2nn(C)c(-c3cc(F)cc(F)c3)c2CCN1C(=O)c1ccnc(OCC2CNC(=O)O2)c1Cl (stereo partly drawn) [Example 43, 5-[[3-Chloro-4-[(7R)-3-(3,5-difluorophenyl)-2,7-dimethyl-5,7-dihydro-4H-pyrazolo[3,4-c]pyridine-6-carbonyl]-2-pyridyl]oxymethyl]oxazolidin-2-one]	1340
CC1c2nn(C)c(-c3cc(F)cc(F)c3)c2CCN1C(=O)c1ccc(CCC2CNC(=O)C2)cc1Cl (stereo not shown) [Example 44, 4-[2-[3-Chloro-4-[3-(3,5-difluorophenyl)-2,7-dimethyl-5,7-dihydro-4H-pyrazolo[3,4-c]pyridine-6-carbonyl]phenyl]ethyl]pyrrolidin-2-one]	261
C[C@H]1c2nn(C)c(-c3cc(F)cc(F)c3)c2CCN1C(=O)c1ccc(CCC2CNC(=O)C2)cc1Cl (stereo partly drawn) [Example 45, 4-[2-[3-Chloro-4-[(7S)-3-(3,5-difluorophenyl)-2,7-dimethyl-5,7-dihydro-4H-pyrazolo[3,4-c]pyridine-6-carbonyl]phenyl]ethyl]pyrrolidin-2-one]	99
C[C@@H]1c2nn(C)c(-c3cc(F)cc(F)c3)c2CCN1C(=O)c1ccc(CCC2CNC(=O)C2)cc1Cl (stereo partly drawn) [Example 48, 4-[2-[3-Chloro-4-[(7R)-3-(3,5-difluorophenyl)-2,7-dimethyl-5,7-dihydro-4H-pyrazolo[3,4-c]pyridine-6-carbonyl]phenyl]ethyl]pyrrolidin-2-one]	1680
C[C@H]1c2nn(C)c(-c3cc(F)cc(F)c3)c2CCN1C(=O)c1cc(F)cc(-c2c[nH]c(C#N)c2)c1 [Example 53, 4-[3-[(7S)-3-(3,5-Difluorophenyl)-2,7-dimethyl-5,7-dihydro-4H-pyrazolo[3,4-c]pyridine-6-carbonyl]-5-fluorophenyl]-1H-pyrrole-2-carbonitrile]	3
CC1c2nn(C)c(-c3cc(Cl)cc(C4(NS(C)(=O)=O)CC4)c3)c2CCN1C(=O)c1cc(F)cc(-c2ccc(=O)[nH]c2)c1Cl (stereo not shown) [Example 55, N-[1-[3-Chloro-5-[6-[2-chloro-5-fluoro-3-(6-oxo-1H-pyridin-3-yl)benzoyl]-2,7-dimethyl-5,7-dihydro-4H-pyrazolo[3,4-c]pyridin-3-yl]phenyl]cyclopropyl]methanesulfonamide]	7
C=S(N)(=O)c1cc(Cl)cc(-c2c3c(nn2C)C(C)N(C(=O)c2cc(F)cc(-c4ccc(=O)[nH]c4)c2Cl)CC3)c1 (stereo not shown) [Example 56]	12
CC1c2nn(C)c(-c3cc(Cl)cc(C4(NS(C)(=O)=O)CC4)c3)c2CCN1C(=O)c1cc(F)cc(-c2cc[nH]c(=O)c2)c1Cl (stereo not shown) [Example 57, N-[1-[3-Chloro-5-[6-[2-chloro-5-fluoro-3-(2-oxo-1H-pyridin-4-yl)benzoyl]-2,7-dimethyl-5,7-dihydro-4H-pyrazolo[3,4-c]pyridin-3-yl]phenyl]cyclopropyl]methanesulfonamide]	115
CC1c2nn(C)c(-c3cncc(C(F)(F)F)n3)c2CCN1C(=O)c1cc(F)cc(N2CC(S(N)(=O)=O)C2)c1Cl (stereo not shown) [Example 58, 1-[2-Chloro-3-[2,7-dimethyl-3-[6-(trifluoromethyl)pyrazin-2-yl]-5,7-dihydro-4H-pyrazolo[3,4-c]pyridine-6-carbonyl]-5-fluoro-phenyl]azetidine-3-sulfonamide]	304
CC1c2nn(C)c(-c3cc(Cl)cc(S(N)(=O)=O)c3)c2CCN1C(=O)c1ncn(-c2ccc[nH]c2=O)n1 (stereo not shown) [Example 59, 3-Chloro-5-[2,7-dimethyl-6-[1-(2-oxo-1H-pyridin-3-yl)-1,2,4-triazole-3-carbonyl]-5,7-dihydro-4H-pyrazolo[3,4-c]pyridin-3-yl]benzenesulfonamide]	1070
CC1c2nn(C)c(-c3cc(Cl)cc(C4(S(C)(=O)=O)CC4)c3)c2CCN1C(=O)c1cc(F)cc(-c2ccc(=O)[nH]c2)c1Cl (stereo not shown) [Example 60, 5-[2-Chloro-3-[3-[3-chloro-5-(1-methylsulfonylcyclopropyl)phenyl]-2,7-dimethyl-5,7-dihydro-4H-pyrazolo[3,4-c]pyridine-6-carbonyl]-5-fluoro-phenyl]-1H-pyridin-2-one]	138
CC1c2nn(C)c(-c3cc(Cl)cc(S(N)(=O)=O)c3)c2CCN1C(=O)c1cc(F)cc(-c2nc[nH]n2)c1Cl (stereo not shown) [Example 61, 3-Chloro-5-[6-[2-chloro-5-fluoro-3-(1H-1,2,4-triazol-3-yl)benzoyl]-2,7-dimethyl-5,7-dihydro-4H-pyrazolo[3,4-c]pyridin-3-yl]benzenesulfonamide]	77
C[C@H]1c2nn(C)c(-c3cc(Cl)cc(S(N)(=O)=O)c3)c2CCN1C(=O)c1ncn(-c2ccc[nH]c2=O)n1 [Example 62, 3-Chloro-5-[(7S)-2,7-dimethyl-6-[1-(2-oxo-1H-pyridin-3 yl)-1,2,4-triazole-3-carbonyl]-5,7-dihydro-4H-pyrazolo[3,4-c]pyridin-3-yl]benzenesulfonamide]	326
C[C@@H]1c2nn(C)c(-c3cc(Cl)cc(S(N)(=O)=O)c3)c2CCN1C(=O)c1ncn(-c2ccc[nH]c2=O)n1 [Example 63, 3-Chloro-5-[(7R)-2,7-dimethyl-6-[1-(2-oxo-1H-pyridin-3-yl)-1,2,4-triazole-3-carbonyl]-5,7-dihydro-4H-pyrazolo[3,4-c]pyridin-3-yl]benzenesulfonamide]	552
C[C@H]1c2nn(C)c(-c3cncc(C(F)(F)F)n3)c2CCN1C(=O)c1cc(F)cc(-c2c[nH]c(C#N)c2)c1Cl [Example 64, 4-[2-chloro-3-[(7S)-2,7-dimethyl-3-[6-(trifluoromethyl)pyrazin-2-yl]-5,7-dihydro-4H-pyrazolo[3,4-c]pyridine-6-carbonyl]-5-fluoro-phenyl]-1H-pyrrole-2-carbonitrile]	13
C[C@H]1c2nn(C)c(-c3cncc(C(F)(F)F)n3)c2CCN1C(=O)c1cc(F)cc(N2CC3(C2)CS(=O)(=O)C3)c1Cl [Example 65, [2-chloro-3-(2,2-dioxo-2λ^6-thia-6-azaspiro[3.3]heptan-6-yl)-5-fluoro-phenyl]-[(7S)-2,7-dimethyl-3-[6-(trifluoromethyl)pyrazin-2-yl]-5,7-dihydro-4H-pyrazolo[3,4-c]pyridin-6-yl]methanone]	2830

Source: patent US20250059185A1 (Hoffmann-La Roche Inc., priority 2021, published 2025)
